From patent US9670482B2, “Multispecific peptides” (BICYCLE THERAPEUTICS LIMITED, priority 2009, dated 2017)
Each block holds one compound with its values, some of them ahead of it. Residues, ends and D or L forms follow the SMILES beside them.

Experiments:
Kallikrein = biological target: T1, Kallikrein (Homo sapiens, UniProt P03952); assay: Kallikrein assays (Z-Phe-Arg-amc substrate); format: biochemical; conditions: IC50 for inhibition of kallikrein activity, 0.1 nM kallikrein, 100 μM substrate, 30° C.
T1 construct: purchased Sigma Aldrich
Description: Enzymes were purchased from Sigma Aldrich and substrates from Bachem A G. The assay buffer is composed of 10 mM Tris pH 7.4, 150 mM NaCl, 10 mM MgCl2, 1 mM CaCl2, 0.1% BSA, 0.01% Triton X100 and 5% DMSO. Enzymes are incubated with inhibitors for 30 minutes at RT prior to addition of substrate. All experiments were recorded at 30° C. for 90 minutes.
Assays were performed on a BMG Pherastar plate reader at wavelengths of exc/em 350/450 nm. Kallikrein was bought as a solution of 1080 μg/mL and diluted to a working concentration of 0.3 nM in assay buffer. Substrate Z-Phe-Arg-amc was solubilised at the stock concentration of 10 mM in DMSO and diluted to a working concentration of 300 μM with assay buffer. Inhibitors were solubilised in assay buffer to a stock concentration of 60 μM. 50 μL of each reagent is introduced in wells for a final volume of 150 μL per well. Final concentration of kallikrein in assay is 0.1 nM and substrate is 100 μM.
Final concentrations of inhibitors were: 0.5 nM, 1 nM, 2 nM, 5 nM, 8 nM, 10 nM, 20 nM, 50 nM, 80 nM, 100 nM, 200 nM, 500 nM, 800 nM, 1 μM, 2 μM, 5 μM, 8 μM, 10 μM and 20 μM. The initial rate of the reaction is obtained by plotting fluorescence=f (time) data and by fitting a linear trendline for each concentration of inhibitor. The inhibition curves are obtained by plotting initial rate=f ([I]) and IC50 values can be evaluated.

[1] = biological target: bovine serum albumin (BSA) (Bos taurus, UniProt P02769); assay: Fluorescence anisotropy titration with BSA; conditions: for binding to BSA (change in anisotropy): titration with BSA, FIG. 4
From the text: For determining the affinity constant (Kd) of a fluorophore to target protein, we chose fluorescence anisotropy titrations.
Excitation was specific for coumarin (328 nm), and emission at 393 nm.
To determine whether a neighbouring group (here, Gly) on Fmoc affects binding to BSA, a similar experiment was run with Fmoc-Gly-OH (Nova Biochem). The intrinsic fluorescing properties of Fmoc were used for the anisotropy experiments.
To determine whether a neighbouring hydrophobic bulky group has an enhancing or adverse effect on BSA binding, Fmoc-Phe-OH was tested as above.
The solid phase resin employed was PAL-PEG-PS from Applied Biosystems. […] All peptides were capped with an N-terminal Fmoc, and a C-terminal amide (NH2). After cleavage, peptides were lyophilised, and solubilised in 5 mL of DMF. 100 μl of this was loaded onto an analytical C18 column using a Waters HPLC, using methanol and water (both in the presence of 0.1% TFA) as solvents. […] The peptide concentration in the cuvette was 200 nM.
Excitation was at 299 nm (to minimise Trp absorption), and emission at 320 nm. Slit widths were at 5 and 12 nm, respectively.
Peptide concentrations were estimated by the absorbance at 299 nm, using the extinction coefficient of 4700/M/cm. Excitation was at 299 nm, and emission was set to 320 nm, at slit widths of 5 and 12 nm, respectively.

Cathepsin G = biological target: T2, Cathepsin G (Homo sapiens, UniProt P08311); assay: Peptide conjugate digestion with Cathepsin G; format: in vitro ADME; parameters: key to the marks not given beside the values; conditions: 37° C. for 1 hr
T2 sequence (P08311 21-244): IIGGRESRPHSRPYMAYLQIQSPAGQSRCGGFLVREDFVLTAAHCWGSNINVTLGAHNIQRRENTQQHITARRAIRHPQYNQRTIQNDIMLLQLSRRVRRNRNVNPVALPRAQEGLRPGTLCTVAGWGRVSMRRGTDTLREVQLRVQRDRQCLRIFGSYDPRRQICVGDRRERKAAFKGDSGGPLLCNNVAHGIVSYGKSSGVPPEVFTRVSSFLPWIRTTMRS
Description: (§1) Linear peptides (PK15 and CG4L1-PK15L1) were first treated with iodoacetamide prior to digestion studies. The peptides (ca 3-4 mg) were purified by HPLC (semi-prep Proteo column as described in general methods), and the HPLC fraction (ca 3 ml) was neutralised with an equal volume of 50 mM ammonium bicarbonate. […] The reaction mixture was concentrated (rotary evaporator) and re-purified by HPLC as above.
(§2) Peptides (linear and conjugates) were dissolved in water at a concentration of 1 mg/ml, giving an effective concentration of −0.5 mM stock solutions. 2 μl of peptide conjugates (˜30 μM in reactions depending on actual molecular weight) where dissolved in reaction buffer (see below) in a total reaction volume of 30 μl, followed by the protease, and samples were incubated at 37° C. for 1 hr. 10 μl aliquots were quenched into 20 μl of 10% dichloroacetic acid in MeCN/H2O (1:1) and stored at −20° C. for 30 minutes, centrifuged at 4° C. (13000 rpm) for 5 minutes and then spotted onto MALDI-TOF mass spectrometer plate for analysis.
(§3) All reactions at 37° C. Cathepsin G and kalikrein reactions were carried out in 10 mM Tris pH 7.4, 150 mM NaCl, 10 mM MgCl2, 1 mM CaCl2, 0.1% BSA, 0.01% Triton X100, 5% DMSO. Chymotrypsin reactions were carried out in 100 mM Tris pH 7.4, 10 mM CaCl2. Pronase and proteinase K reactions were carried out in 100 mM Tris pH 7.4, 0.5% SDS. Subtilisin reactions were carried out in 50 mM KH2PO4 pH 7.5. Trypsin reactions were carried out in 67 mM sodium phosphate pH 7.6. Reaction conditions with serum involve dissolving the peptide in 1×PBS (total volume 24 μl) and 6 μl of human serum added to the reaction.

Subtilisin = assay: Peptide conjugate digestion with Subtilisin; format: in vitro ADME; conditions: 37° C. for 1 hr
Description: as §1, §2, §3

Pronase = assay: Peptide conjugate digestion with Pronase; format: in vitro ADME; parameters: key to the marks not given beside the values; conditions: 37° C. for 1 hr
Description: as §1, §2, §3

Kalikrein = Kalikrein (Homo sapiens, UniProt P03952); assay: Peptide conjugate digestion with Kalikrein; format: in vitro ADME; parameters: digestion with Kalikrein: key to the marks not given beside the values; conditions: 37° C. for 1 hr
Description: as §1, §2, §3

Trypsin = assay: Peptide conjugate digestion with Trypsin; format: in vitro ADME; conditions: 37° C. for 1 hr
Description: as §1, §2, §3

Chymotrypsin = assay: Peptide conjugate digestion with Chymotrypsin; format: in vitro ADME; conditions: 37° C. for 1 hr
Description: as §1, §2, §3

bovine serum albumin (BSA), sequence (P02769 25-607): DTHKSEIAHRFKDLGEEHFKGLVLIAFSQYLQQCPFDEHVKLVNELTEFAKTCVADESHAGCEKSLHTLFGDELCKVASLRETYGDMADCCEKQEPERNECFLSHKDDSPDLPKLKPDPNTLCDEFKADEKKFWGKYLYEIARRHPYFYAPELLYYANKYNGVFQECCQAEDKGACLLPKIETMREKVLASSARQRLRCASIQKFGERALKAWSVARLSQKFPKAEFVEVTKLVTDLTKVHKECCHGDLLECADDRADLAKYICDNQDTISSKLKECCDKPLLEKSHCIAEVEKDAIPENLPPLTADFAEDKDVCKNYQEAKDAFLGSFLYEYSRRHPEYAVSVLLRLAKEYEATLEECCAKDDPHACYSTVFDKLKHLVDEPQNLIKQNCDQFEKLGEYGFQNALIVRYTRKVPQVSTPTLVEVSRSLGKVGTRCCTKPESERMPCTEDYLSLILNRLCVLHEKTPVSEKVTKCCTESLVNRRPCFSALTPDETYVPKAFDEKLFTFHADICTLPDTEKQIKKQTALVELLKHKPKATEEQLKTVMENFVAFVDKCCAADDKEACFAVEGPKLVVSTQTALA
T1 sequence (P03952 20-638): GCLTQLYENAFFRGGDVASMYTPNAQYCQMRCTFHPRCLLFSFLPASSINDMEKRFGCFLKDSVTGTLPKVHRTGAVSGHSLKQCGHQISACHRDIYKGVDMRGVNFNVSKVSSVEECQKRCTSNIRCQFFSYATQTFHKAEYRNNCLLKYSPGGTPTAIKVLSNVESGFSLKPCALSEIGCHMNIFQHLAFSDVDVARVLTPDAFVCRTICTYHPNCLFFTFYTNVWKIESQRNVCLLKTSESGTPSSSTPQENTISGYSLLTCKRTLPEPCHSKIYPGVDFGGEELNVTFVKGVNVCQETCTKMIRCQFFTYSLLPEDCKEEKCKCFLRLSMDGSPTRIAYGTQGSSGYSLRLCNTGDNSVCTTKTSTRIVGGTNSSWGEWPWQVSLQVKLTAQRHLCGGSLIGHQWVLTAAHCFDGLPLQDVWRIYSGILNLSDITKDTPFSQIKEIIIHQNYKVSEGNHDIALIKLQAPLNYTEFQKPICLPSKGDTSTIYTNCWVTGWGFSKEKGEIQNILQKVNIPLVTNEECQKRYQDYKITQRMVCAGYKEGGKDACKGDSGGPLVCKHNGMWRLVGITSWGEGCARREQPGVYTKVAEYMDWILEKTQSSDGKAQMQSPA
Kalikrein, sequence (P03952 20-638): as above

Compound: CC[C@H](C)[C@@H]1NC(=O)[C@@H]2CSCc3cc4cc(c3)CSC[C@H](NC(=O)[C@H](CC(N)=O)NC(=O)[C@H](CCCNC(=N)N)NC(=O)[C@H](Cc3ccccc3)NC(=O)[C@H](CCCNC(=N)N)NC(=O)[C@H](CC(=O)O)NC(=O)[C@H](CO)NC(=O)[C@H](CSC4)NC(=O)[C@H](Cc3ccccc3)NC(=O)CNC(=O)[C@H](CC(C)C)NC(=O)[C@H](CC(=O)O)NC(=O)[C@H](Cc3ccccc3)NC1=O)C(=O)N1CCC[C@H]1C(=O)N[C@@H](C)C(=O)N[C@@H](CC(=O)O)C(=O)N[C@@H](CCC(=O)O)C(=O)N[C@@H](C)C(=O)N[C@@H](CC(C)C)C(=O)N2 [CG4L1-PK15L1-PK15L2 tricyclic] (HELM PEPTIDE1{A.D.E.A.L.C.I.F.D.L.G.F.C.S.D.R.F.R.N.C.P}|CHEM1{[c1c(C[*:1])cc(C[*:3])cc1C[*:2]]}$PEPTIDE1,CHEM1,6:R3-1:R1|PEPTIDE1,CHEM1,13:R3-1:R2|PEPTIDE1,CHEM1,20:R3-1:R3|PEPTIDE1,PEPTIDE1,1:R1-21:R2$$$V2.0)
IC50 (Kallikrein): 15000 nM

Compound: NC(=O)[C@H](CC(=O)O)NC(=O)CNC(=O)[C@H](CO)NC(=O)CNC(=O)[C@H](Cc1ccccc1)NC(=O)OCC1c2ccccc2-c2ccccc21 [Fmoc-FGSGD-NH2] (HELM PEPTIDE1{[O=C(OCC1c2ccccc2-c2ccccc21)[*:2]].F.G.S.G.D.[am]}$$$$V2.0)
fold tighter binding to BSA than the glycine variant Fmoc-GGSGD-NH2 [1]: 8 fold

Compound: O=C(O)CNC(=O)OCC1c2ccccc2-c2ccccc21 [Fmoc-Gly-OH]
Kd [1]: 420 nM

Compound: NC(=O)[C@H](CC(=O)O)NC(=O)CNC(=O)[C@H](CO)NC(=O)CNC(=O)[C@H](Cc1c[nH]c2ccccc12)NC(=O)OCC1c2ccccc2-c2ccccc21 [Fmoc-WGSGD-NH2] (HELM PEPTIDE1{[O=C(OCC1c2ccccc2-c2ccccc21)[*:2]].W.G.S.G.D.[am]}$$$$V2.0)
Kd [1]: ~60 nM
fold tighter binding to BSA than Fmoc-FGSGD-NH2 [1]: 3 fold

Compound: CC[C@H](C)[C@@H]1NC(=O)[C@@H]2CSCc3cc(cc(c3)CSC[C@@H](C(=O)NCC(=O)O)NC(=O)[C@H](Cc3ccccc3)NC(=O)CNC(=O)[C@H](CC(C)C)NC(=O)[C@H](CC(=O)O)NC(=O)[C@H](Cc3ccccc3)NC1=O)CSC[C@H](NC(=O)[C@H](C)N)C(=O)N[C@@H](CO)C(=O)N[C@@H](CC(=O)O)C(=O)N[C@@H](CCCNC(=N)N)C(=O)N[C@@H](Cc1ccccc1)C(=O)N[C@@H](CCCNC(=N)N)C(=O)N[C@@H](CC(N)=O)C(=O)N2 [PK15L1-CG4L1 bicyclic] (HELM PEPTIDE1{A.C.S.D.R.F.R.N.C.I.F.D.L.G.F.C.G}|CHEM1{[c1c(C[*:1])cc(C[*:3])cc1C[*:2]]}$PEPTIDE1,CHEM1,2:R3-1:R1|PEPTIDE1,CHEM1,9:R3-1:R2|PEPTIDE1,CHEM1,16:R3-1:R3$$$V2.0)
IC50 (Kallikrein): 200 nM

Compound: CC[C@H](C)[C@@H]1NC(=O)[C@@H](NC(=O)[C@H](CC(C)C)NC(=O)[C@H](C)N)CSCc2cc3cc(c2)CSC[C@@H](C(=O)N2CCC[C@H]2C(=O)N[C@@H](C)C(=O)N[C@@H](CC(=O)O)C(=O)N[C@@H](CCC(=O)O)C(=O)O)NC(=O)[C@H](CC(N)=O)NC(=O)[C@H](CCCNC(=N)N)NC(=O)[C@H](Cc2ccccc2)NC(=O)[C@H](CCCNC(=N)N)NC(=O)[C@H](CC(=O)O)NC(=O)[C@H](CO)NC(=O)[C@H](CSC3)NC(=O)[C@H](Cc2ccccc2)NC(=O)CNC(=O)[C@H](CC(C)C)NC(=O)[C@H](CC(=O)O)NC(=O)[C@H](Cc2ccccc2)NC1=O [X-CG4L1-PK15L1-Y bicyclic] (HELM PEPTIDE1{A.L.C.I.F.D.L.G.F.C.S.D.R.F.R.N.C.P.A.D.E}|CHEM1{[c1c(C[*:1])cc(C[*:3])cc1C[*:2]]}$PEPTIDE1,CHEM1,3:R3-1:R1|PEPTIDE1,CHEM1,10:R3-1:R2|PEPTIDE1,CHEM1,17:R3-1:R3$$$V2.0)
digestion with Cathepsin G (Cathepsin G; 0.01 μg enzyme per reaction): +++
digestion with Cathepsin G (Cathepsin G; 0.1 μg enzyme per reaction): +++
digestion with Subtilisin (Subtilisin; 0.009 μg enzyme per reaction): +++
digestion with Subtilisin (Subtilisin; 9 μg enzyme per reaction): −
digestion with Pronase (Pronase; 0.01 μg enzyme per reaction): +++
digestion with Pronase (Pronase; 0.1 μg enzyme per reaction): +++
digestion with Pronase (Pronase; 1 μg enzyme per reaction): +++
IC50 (Kallikrein): 15000 nM
digestion with Kalikrein (Kalikrein; 0.01 μg enzyme per reaction): +++
digestion with Kalikrein (Kalikrein; 0.1 μg enzyme per reaction): +++
digestion with Trypsin (Trypsin; 0.01 μg enzyme per reaction): +++
digestion with Trypsin (Trypsin; 10 μg enzyme per reaction): −
digestion with Chymotrypsin (Chymotrypsin; 0.01 μg enzyme per reaction): +++
digestion with Chymotrypsin (Chymotrypsin; 10 μg enzyme per reaction): −

Next, values leading:

Kd [1]: 340 nM
Compound: COc1ccc2c(CC(=O)NCCCC[C@H](NC(=O)OCC3c4ccccc4-c4ccccc43)C(=O)O)cc(=O)oc2c1 [Fmoc-Lys-Mca]

binding to BSA (change in anisotropy) [1]: no binding
Compound: COc1ccc2c(CC(=O)NCCCCC(N)C(=O)O)cc(=O)oc2c1 (centres unmarked) [Lys-Mca]

binding to BSA (change in anisotropy) [1]: did not bind BSA
Compound: COc1ccc2c(CC(=O)O)cc(=O)oc2c1 [Mca-OH]
